**Q.** With `CC[C@H](NCc1ccccc1)c1nc(-c2ccc(-c3ccccc3)cc2)c[nH]1` [Example 198, (1S)-N-benzyl-1-(4-[1,1′-biphenyl]4-yl-1H-imidazol-2-yl)-1-propanamine] as the compound, how does the melting point read?
**A.** 220 to 222 °C

**Q.** Which melting point does the source give for `CC(C)(C)COC(=O)NCCc1nc(-c2ccc(-c3ccccc3)cc2)c[nH]1` [Example 203, 4-[2-(2-{[(neopentyloxy)carbonyl]amino}ethyl)-1H-imidazol-4-yl]-1,1′-biphenyl] here?
**A.** 162 to 164 °C

**Q.** With `CC[C@H](NCc1ccccc1)c1nc(-c2ccccc2)c(-c2ccccc2)[nH]1` [Example 204, (1S)-N-benzyl-1-(4,5-diphenyl-1H-imidazol-2-yl)-1-propanamine] as the compound, how does the melting point read?
**A.** 182 to 184 °C

**Q.** For `CCC[C@@H](NC(=O)OC(C)(C)C)c1nc(-c2ccccc2)c[nH]1` [Example 207, tert-butyl (1R)-1-(4-phenyl-1H-imidazol-2-yl)butylcarbamate], which melting point is on record?
**A.** 156 to 158 °C

**Q.** With `CCC[C@@H](NC(=O)OC(C)(C)C)c1nc(-c2ccc(-c3ccccc3)cc2)c[nH]1` [Example 208, 4-(2-{(1R)-1-[(tert-butoxycarbonyl)amino]butyl}-1H-imidazol-4-yl)-1,1′-biphenyl] as the compound, how does the melting point read?
**A.** 145.6 °C

**Q.** With `CCC[C@@H](NCc1ccccc1)c1nc(-c2ccc(-c3ccccc3)cc2)c[nH]1` [Example 213, (1R)-N-benzyl-1-(4-[1,1′-biphenyl]-4-yl-1H-imidazol-2-yl)-1-butanamine] as the compound, how does the melting point read?
**A.** 78.6 °C

**Q.** For `CCC[C@@H](NCc1ccccc1)c1nc(-c2ccccc2)c[nH]1` [Example 214, (1R)-N-benzyl-1-(4-phenyl-1H-imidazol-2-yl)-1-butanamine], which melting point is on record?
**A.** 218 to 220 °C

**Q.** For `O=C(NCCc1nc(-c2ccc(-c3ccccc3)cc2)c[nH]1)OCc1ccccc1` [Example 237, 4-[2-(2-{[(benzyloxy)carbonyl]amino}ethyl)-1H-imidazol-4-yl]-1,1′-biphenyl], which melting point is on record?
**A.** 134 to 136 °C

**Q.** Which melting point does the source give for `CCCCOC(=O)NC(C)(C)c1nc(-c2ccc(-c3ccccc3)cc2)c[nH]1` [Example 238, 4-(2-{1-[(butoxycarbonyl)amino]-1-methylethyl}-1H-imidazol-4-yl)-1,1′-biphenyl] here?
**A.** 170 to 172 °C

**Q.** For `CC(C)COC(=O)NCCc1nc(-c2ccc(-c3ccccc3)cc2)c[nH]1` [Example 239, 4-(2-{2-[(isobutoxycarbonyl)amino]ethyl}-1H-imidazol-4-yl)-1,1′-biphenyl], which melting point is on record?
**A.** 134 to 135 °C

**Q.** For `CCCCOC(=O)N[C@@H](C)c1nc(-c2ccc(-c3ccccc3)cc2)c[nH]1` [Example 241, 4-(2-{(1S)-1-[(butoxycarbonyl)amino]ethyl}-1H-imidazol-4-yl)-1,1′-biphenyl], which melting point is on record?
**A.** 118 to 122 °C

**Q.** For `CCCCOC(=O)N[C@H](C)c1nc(-c2ccc(-c3ccccc3)cc2)c[nH]1` [Example 242, 4-(2-{(1R)-1-[(butoxycarbonyl)amino]ethyl}-1H-imidazol-4-yl)-1,1′-biphenyl], which melting point is on record?
**A.** 114 to 116 °C

**Q.** For `c1ccc(-c2c[nH]c([C@@H](NC3CCCCC3)C3CCCCC3)n2)cc1` [Example 243, N-[(S)-cyclohexyl(4-phenyl-1H-imidazol-2-yl)methyl]-cyclohexanamine], which melting point is on record?
**A.** 240 to 242 °C

**Q.** With `COC(=O)NCCc1nc(-c2ccc(-c3ccccc3)cc2)c[nH]1` [Example 244, 4-(2-{2-[(methoxycarbonyl)amino]ethyl}-1H-imidazol-4-yl)-1,1′-biphenyl] as the compound, how does the melting point read?
**A.** 177.2 °C

**Q.** With `CCCOC(=O)NCCc1nc(-c2ccc(-c3ccccc3)cc2)c[nH]1` [Example 245, 4-(2-{2-[(propoxycarbonyl)amino]ethyl}-1H-imidazol-4-yl)-1,1′-biphenyl] as the compound, how does the melting point read?
**A.** 141.2 °C

**Q.** Which melting point does the source give for `CCOC(=O)NCCc1nc(-c2ccc(-c3ccccc3)cc2)c[nH]1` [Example 246, 4-(2-{2-[(ethoxycarbonyl)amino]ethyl}-1H-imidazol-4-yl)-1,1′-biphenyl] here?
**A.** 132.5 °C

**Q.** For `CC(C)(NC(=O)OCc1ccccc1)c1nc(-c2ccc(-c3ccccc3)cc2)c[nH]1` [Example 247, 4-[2-(1-{[(benzyloxy)carbonyl]amino}-1-methylethyl)-1H-imidazol-4-yl]-1,1′-biphenyl], which melting point is on record?
**A.** 148 to 152 °C
